Converted amounts (≈) assume the structure as drawn. The source made the active and inactive calls. No cut-off for these calls is given here.
How the values were obtained:
[1] = molecular target: Cytochrome P450 3A4 (Homo sapiens, UniProt P08684); experiment: Inhibition of CYP3A4 (unknown origin); assay type: ADME
[2] = molecular target: T1, Interleukin-1 receptor-associated kinase 4 (Homo sapiens, UniProt Q9NWZ3); experiment: Inhibition of IRAK4-dependent TLR4 signaling in human THP1-XBlue cells containing NF-kappaB-inducible SEAP reporter gene assessed as inhibition of LPS-EK-induced TLR4 activation incubated at 37 degC for 1 hr by spectrophotometry; assay type: cell-based, THP-1
T1 sequence (Q9NWZ3 whole entry): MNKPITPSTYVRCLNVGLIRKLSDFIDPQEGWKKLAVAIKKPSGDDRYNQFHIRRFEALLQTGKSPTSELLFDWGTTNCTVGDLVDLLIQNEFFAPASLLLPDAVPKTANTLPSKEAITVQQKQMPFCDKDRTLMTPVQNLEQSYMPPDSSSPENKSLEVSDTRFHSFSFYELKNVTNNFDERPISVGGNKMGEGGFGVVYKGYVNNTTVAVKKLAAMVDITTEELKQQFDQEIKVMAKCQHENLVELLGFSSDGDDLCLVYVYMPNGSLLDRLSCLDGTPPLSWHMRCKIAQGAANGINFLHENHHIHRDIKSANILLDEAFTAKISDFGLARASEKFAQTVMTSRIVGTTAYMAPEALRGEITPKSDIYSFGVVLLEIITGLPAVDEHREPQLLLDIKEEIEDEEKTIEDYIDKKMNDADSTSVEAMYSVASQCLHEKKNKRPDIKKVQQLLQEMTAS

[3] = molecular target: T2, Interleukin-1 receptor-associated kinase 4 (Homo sapiens) (UniProt Q9NWZ3); experiment: Potency index, ratio of IC50 for inhibition of IRAK4-dependent TLR4 signaling in human THP1-XBlue cells containing NF-kappaB-inducible SEAP reporter gene to IC50 for human IRAK4 (unknown origin); assay type: cell-based
T2 sequence (whole entry): T1 sequence (Q9NWZ3 whole entry)

[4] = molecular target: Dual specificity protein kinase CLK2 (Homo sapiens) (UniProt P49760); experiment: Inhibition of CLK2 (unknown origin)
[5] = Solubility in pH 7 solution; assay type: physicochemical
[6] = molecular target: Cytochrome P450 2D6 (Homo sapiens, UniProt P10635); experiment: Inhibition of CYP2D6 (unknown origin); assay type: ADME
[7] = molecular target: Platelet-derived growth factor receptor alpha (Homo sapiens) (UniProt P16234); experiment: Inhibition of PDGFRA (unknown origin)
[8] = molecular target: Receptor-type tyrosine-protein kinase FLT3 (Homo sapiens) (UniProt P36888); experiment: Inhibition of FLT3 (unknown origin)
[9] = molecular target: Cytochrome P450 2C9 (Homo sapiens, UniProt P11712); experiment: Inhibition of CYP2C9 (unknown origin); assay type: ADME
[10] = molecular target: T1, Interleukin-1 receptor-associated kinase 4; experiment: Inhibition of human IRAK4 (unknown origin)
[11] = molecular target: Proto-oncogene tyrosine-protein kinase receptor Ret (Homo sapiens) (UniProt P07949); experiment: Inhibition of RET (unknown origin)
[12] = molecular target: T3, Tumor necrosis factor receptor superfamily member 1A (Homo sapiens, UniProt P19438); experiment: Inhibition of TNFR in human THP1-XBlue cells containing NF-kappaB-inducible SEAP reporter gene assessed as inhibition of TNFalpha-induced TNFR activation incubated at 37 degC for 1 hr by spectrophotometry; assay type: cell-based, THP-1
T3 sequence (P19438 whole entry): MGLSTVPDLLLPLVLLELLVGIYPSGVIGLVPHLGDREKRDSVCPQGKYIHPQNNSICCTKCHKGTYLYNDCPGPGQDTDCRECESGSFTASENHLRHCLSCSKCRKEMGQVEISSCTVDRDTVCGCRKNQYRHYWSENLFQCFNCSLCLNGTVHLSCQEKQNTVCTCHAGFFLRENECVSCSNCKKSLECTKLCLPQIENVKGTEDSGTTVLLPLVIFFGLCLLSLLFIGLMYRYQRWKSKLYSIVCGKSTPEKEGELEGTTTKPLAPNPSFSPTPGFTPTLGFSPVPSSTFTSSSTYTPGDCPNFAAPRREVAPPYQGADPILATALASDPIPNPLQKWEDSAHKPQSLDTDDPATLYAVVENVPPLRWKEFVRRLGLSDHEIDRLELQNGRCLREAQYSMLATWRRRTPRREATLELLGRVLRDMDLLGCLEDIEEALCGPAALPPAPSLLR

[13] = Apparent permeability in pig LLC-PK1 cells; assay type: ADME, cell-based, Sus scrofa
[14] = molecular target: BDNF/NT-3 growth factors receptor (Homo sapiens) (UniProt Q16620); experiment: Inhibition of TRKB (unknown origin)
[15] = molecular target: Leucine-rich repeat serine/threonine-protein kinase 2 (Homo sapiens) (UniProt Q5S007); experiment: Inhibition of LRRK2 (unknown origin)
[16] = molecular target: Misshapen-like kinase 1 (Homo sapiens) (UniProt Q8N4C8); experiment: Inhibition of MINK1 (unknown origin)
[17] = molecular target: Tyrosine-protein kinase Lck (Homo sapiens) (UniProt P06239); experiment: Inhibition of LCK (unknown origin)

Cytochrome P450 2D6, sequence (P10635 whole entry): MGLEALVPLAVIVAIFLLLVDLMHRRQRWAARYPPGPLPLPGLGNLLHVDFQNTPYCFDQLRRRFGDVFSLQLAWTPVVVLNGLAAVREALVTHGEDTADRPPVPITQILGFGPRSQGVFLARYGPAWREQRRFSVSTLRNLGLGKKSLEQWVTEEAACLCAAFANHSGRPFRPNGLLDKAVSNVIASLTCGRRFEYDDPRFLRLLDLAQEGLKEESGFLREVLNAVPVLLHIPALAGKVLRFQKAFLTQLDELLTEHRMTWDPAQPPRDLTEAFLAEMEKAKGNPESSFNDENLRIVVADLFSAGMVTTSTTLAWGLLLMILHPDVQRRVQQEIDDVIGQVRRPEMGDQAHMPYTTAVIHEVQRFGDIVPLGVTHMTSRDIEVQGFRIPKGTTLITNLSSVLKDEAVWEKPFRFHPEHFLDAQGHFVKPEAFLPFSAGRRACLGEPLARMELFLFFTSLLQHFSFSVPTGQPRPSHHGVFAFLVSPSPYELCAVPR
Receptor-type tyrosine-protein kinase FLT3 (Homo sapiens), sequence (P36888 whole entry): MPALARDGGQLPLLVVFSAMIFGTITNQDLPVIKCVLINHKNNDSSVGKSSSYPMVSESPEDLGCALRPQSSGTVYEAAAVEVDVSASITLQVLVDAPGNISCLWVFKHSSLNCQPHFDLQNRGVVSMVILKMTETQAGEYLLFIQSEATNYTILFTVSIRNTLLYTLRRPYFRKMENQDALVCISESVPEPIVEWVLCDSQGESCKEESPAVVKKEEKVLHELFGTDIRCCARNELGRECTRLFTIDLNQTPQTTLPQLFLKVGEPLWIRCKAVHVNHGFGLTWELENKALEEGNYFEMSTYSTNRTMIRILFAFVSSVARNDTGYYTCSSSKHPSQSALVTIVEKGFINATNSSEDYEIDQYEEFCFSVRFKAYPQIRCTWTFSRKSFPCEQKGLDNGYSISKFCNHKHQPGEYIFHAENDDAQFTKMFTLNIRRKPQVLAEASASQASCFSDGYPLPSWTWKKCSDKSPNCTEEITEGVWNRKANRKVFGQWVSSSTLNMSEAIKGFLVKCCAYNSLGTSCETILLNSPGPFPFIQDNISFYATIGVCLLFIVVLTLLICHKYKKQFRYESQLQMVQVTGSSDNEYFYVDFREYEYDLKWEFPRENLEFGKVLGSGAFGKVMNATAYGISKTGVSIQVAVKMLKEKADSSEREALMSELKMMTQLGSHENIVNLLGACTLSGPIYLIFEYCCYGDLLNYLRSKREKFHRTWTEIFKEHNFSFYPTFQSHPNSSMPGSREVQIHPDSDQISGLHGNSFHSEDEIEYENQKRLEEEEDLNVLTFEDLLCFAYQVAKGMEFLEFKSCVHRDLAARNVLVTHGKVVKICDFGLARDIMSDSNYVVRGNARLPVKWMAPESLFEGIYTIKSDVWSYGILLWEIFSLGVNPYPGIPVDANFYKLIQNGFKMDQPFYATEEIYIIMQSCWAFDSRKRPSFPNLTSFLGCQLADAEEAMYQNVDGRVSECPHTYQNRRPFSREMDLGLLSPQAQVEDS
Cytochrome P450 2C9, sequence (P11712 whole entry): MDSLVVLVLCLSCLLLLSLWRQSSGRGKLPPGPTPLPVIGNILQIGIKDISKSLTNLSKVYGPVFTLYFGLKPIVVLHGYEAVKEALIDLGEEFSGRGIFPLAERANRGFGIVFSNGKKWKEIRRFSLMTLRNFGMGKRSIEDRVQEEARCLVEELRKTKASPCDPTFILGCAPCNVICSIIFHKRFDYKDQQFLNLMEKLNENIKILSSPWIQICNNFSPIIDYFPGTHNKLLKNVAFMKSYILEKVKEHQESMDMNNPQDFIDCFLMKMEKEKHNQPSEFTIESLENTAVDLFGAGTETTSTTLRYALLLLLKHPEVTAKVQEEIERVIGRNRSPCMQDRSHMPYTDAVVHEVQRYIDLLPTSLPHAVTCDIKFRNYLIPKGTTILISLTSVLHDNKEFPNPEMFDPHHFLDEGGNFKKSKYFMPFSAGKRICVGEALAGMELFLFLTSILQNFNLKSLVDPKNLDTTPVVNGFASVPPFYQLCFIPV
Cytochrome P450 3A4, sequence (P08684 whole entry): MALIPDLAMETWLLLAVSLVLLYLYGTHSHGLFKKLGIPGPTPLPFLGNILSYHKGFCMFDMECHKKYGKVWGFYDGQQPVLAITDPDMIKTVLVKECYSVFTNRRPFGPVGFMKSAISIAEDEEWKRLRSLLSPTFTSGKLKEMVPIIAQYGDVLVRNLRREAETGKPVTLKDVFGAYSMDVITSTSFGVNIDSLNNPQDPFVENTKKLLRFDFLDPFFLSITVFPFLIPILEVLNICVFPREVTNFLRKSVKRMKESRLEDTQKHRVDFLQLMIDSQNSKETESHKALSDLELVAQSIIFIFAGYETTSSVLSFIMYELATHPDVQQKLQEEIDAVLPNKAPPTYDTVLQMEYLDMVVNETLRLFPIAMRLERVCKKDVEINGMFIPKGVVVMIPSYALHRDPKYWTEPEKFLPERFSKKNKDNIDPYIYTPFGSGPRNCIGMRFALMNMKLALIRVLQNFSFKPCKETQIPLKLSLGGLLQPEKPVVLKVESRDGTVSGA
Leucine-rich repeat serine/threonine-protein kinase 2 (Homo sapiens), sequence (Q5S007 whole entry): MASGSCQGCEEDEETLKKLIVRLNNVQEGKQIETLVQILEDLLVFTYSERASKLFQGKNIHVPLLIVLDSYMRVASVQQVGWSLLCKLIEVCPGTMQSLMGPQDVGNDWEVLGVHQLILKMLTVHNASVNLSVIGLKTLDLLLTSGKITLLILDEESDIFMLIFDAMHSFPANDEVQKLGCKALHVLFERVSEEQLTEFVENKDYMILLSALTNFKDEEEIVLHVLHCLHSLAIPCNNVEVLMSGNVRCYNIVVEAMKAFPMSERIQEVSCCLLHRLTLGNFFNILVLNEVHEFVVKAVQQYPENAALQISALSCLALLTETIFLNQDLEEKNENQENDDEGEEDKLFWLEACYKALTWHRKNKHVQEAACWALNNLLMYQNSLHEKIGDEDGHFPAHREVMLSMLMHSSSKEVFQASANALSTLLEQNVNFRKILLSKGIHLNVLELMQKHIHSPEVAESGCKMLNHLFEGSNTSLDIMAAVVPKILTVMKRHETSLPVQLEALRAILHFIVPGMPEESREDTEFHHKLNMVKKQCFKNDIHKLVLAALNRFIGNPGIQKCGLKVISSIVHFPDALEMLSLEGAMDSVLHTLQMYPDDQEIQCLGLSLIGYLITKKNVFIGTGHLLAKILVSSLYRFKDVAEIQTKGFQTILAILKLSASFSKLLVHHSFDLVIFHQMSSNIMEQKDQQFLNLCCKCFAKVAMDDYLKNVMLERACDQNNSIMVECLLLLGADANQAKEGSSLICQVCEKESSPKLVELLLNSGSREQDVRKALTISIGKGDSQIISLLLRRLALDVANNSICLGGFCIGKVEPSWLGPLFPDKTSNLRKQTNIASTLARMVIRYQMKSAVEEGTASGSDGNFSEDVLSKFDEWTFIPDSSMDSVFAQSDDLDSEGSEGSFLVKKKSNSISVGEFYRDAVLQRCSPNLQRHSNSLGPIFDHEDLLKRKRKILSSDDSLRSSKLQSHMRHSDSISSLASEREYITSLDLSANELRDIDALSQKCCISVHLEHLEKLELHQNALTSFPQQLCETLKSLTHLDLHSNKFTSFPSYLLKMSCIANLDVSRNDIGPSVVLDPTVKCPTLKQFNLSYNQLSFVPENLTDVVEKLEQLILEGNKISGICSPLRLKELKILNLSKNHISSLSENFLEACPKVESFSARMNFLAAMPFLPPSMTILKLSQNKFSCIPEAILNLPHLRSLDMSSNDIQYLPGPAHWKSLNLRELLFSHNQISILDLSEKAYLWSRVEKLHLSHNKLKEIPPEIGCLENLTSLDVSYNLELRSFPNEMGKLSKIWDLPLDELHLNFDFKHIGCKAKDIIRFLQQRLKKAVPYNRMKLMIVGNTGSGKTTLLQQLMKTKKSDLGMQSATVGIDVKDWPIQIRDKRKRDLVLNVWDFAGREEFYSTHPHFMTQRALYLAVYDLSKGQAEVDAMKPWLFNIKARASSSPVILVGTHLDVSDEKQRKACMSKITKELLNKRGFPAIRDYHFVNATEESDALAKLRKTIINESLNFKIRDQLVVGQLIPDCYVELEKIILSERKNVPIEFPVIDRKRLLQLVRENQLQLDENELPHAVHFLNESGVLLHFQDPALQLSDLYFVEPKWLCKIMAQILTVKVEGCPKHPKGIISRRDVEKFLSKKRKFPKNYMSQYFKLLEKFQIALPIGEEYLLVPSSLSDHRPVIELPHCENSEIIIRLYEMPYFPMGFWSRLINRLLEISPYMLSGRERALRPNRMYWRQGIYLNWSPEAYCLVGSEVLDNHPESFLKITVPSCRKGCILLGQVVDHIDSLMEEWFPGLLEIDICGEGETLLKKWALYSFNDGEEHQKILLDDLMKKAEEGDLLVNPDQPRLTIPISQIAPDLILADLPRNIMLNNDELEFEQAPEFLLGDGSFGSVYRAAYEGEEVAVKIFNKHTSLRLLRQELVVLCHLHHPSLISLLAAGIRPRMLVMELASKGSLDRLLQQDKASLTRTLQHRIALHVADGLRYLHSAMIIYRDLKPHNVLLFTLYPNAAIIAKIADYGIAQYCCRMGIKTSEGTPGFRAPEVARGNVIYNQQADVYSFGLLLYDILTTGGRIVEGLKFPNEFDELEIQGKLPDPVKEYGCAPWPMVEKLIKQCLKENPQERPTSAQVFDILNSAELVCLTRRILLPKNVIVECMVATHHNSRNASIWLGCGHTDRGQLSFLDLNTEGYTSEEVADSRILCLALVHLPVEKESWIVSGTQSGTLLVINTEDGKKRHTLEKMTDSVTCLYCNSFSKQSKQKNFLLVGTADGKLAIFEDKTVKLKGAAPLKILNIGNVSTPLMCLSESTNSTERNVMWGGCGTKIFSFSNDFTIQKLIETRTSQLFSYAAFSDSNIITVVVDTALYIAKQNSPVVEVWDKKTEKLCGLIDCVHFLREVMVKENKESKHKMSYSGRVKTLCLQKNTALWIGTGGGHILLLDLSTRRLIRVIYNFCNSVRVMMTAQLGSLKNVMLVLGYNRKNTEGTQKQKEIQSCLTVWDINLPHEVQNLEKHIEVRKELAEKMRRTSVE

SMILES | IC50 [1] [nM] | IC50 [2] [nM] | Ratio IC50 [3] | solubility [5] [µM] | IC50 [6] [nM] | IC50 [9] [nM] | IC50 [10] [nM] | Papp [13] [×10⁻⁶ cm/s] | IC50 [12] [nM] | also measured
Cc1cc(Nc2ncc(-c3cscn3)c(N[C@@H]3C[C@H](CO)[C@@H](O)[C@H]3O)n2)cc(C)n1 |  |  |  |  |  |  | 852 |  |  | 
Cc1cc(Nc2ncc(-c3cncs3)c(N[C@@H]3C[C@H](CO)[C@@H](O)[C@H]3O)n2)cc(C)n1 |  |  |  |  |  |  | 2110 |  |  | 
OC[C@H]1C[C@@H](Nc2nc(Nc3ccncc3)ncc2-c2nccs2)[C@H](O)[C@@H]1O |  |  |  |  |  |  | > 20000 |  |  | 
COc1cc(Nc2ncc(-c3nc(-c4ccccc4)cs3)c(N[C@@H]3C[C@H](CO)[C@@H](O)[C@H]3O)n2)ccn1 |  |  |  |  |  |  | 89 |  |  | 
CC(C)Oc1cc(Nc2ncc(-c3ccc4ccccc4n3)c(N[C@@H]3C[C@H](CO)[C@@H](O)[C@H]3O)n2)ccn1 | > 50000 | 216 | 10 | 23 (≈ 11.6 µg/mL) | > 50000 | > 50000 |  | > 15 | > 31000 | 
OC[C@H]1C[C@@H](Nc2nc(NC3CC3)ncc2-c2nc3cnccc3s2)[C@H](O)[C@@H]1O |  |  |  |  |  |  | 647 |  |  | 
COc1cc(Nc2ncc(-c3ccc4ccccc4n3)c(N[C@@H]3C[C@H](CO)[C@@H](O)[C@H]3O)n2)ccn1 | > 50000 | 25 | 10 | 22 (≈ 10.4 µg/mL) | > 50000 | > 50000 |  | > 15 | > 31000 | 
COc1cc(Nc2ncc(-n3cccn3)c(N[C@@H]3C[C@H](CO)[C@@H](O)[C@H]3O)n2)ccn1 |  |  |  |  |  |  | 6010 |  |  | 
Cc1cc(Nc2ncc(-n3cccn3)c(N[C@@H]3C[C@H](CO)[C@@H](O)[C@H]3O)n2)cc(C)n1 |  |  |  |  |  |  | 932 |  |  | 

The remaining molecules from weak to strong by IC50 [10], led by results:

IC50 [1] [nM] | IC50 [2] [nM] | Ratio IC50 [3] | solubility [5] [µM] | IC50 [6] [nM] | IC50 [9] [nM] | IC50 [10] [nM] | Papp [13] [×10⁻⁶ cm/s] | SMILES | IC50 [12] [nM] | also measured
> 50000 | 341 | 10 | 31 (≈ 15.5 µg/mL) | > 50000 | > 50000 | 44 | > 15 | OC[C@H]1C[C@@H](Nc2nc(Nc3ccnc(OC4CC4)c3)ncc2-c2ccc3ccccc3n2)[C@H](O)[C@@H]1O | > 31000 | 
 |  |  |  |  |  | 18 |  | OC[C@H]1C[C@@H](Nc2nc(Nc3cccnc3)ncc2-c2nc3ccncc3s2)[C@H](O)[C@@H]1O |  | 
> 50000 | 3450 | > 240 | < 4 | > 50000 | > 50000 | 14 | 2 | Cc1cc(Nc2cc(N[C@@H]3C[C@H](CO)[C@@H](O)[C@H]3O)c(-c3nc4ccccc4s3)cn2)cc(C)n1 | > 31000 | inhibition [4]: Active; inhibition [7]: Active; inhibition [8]: Active; inhibition [11]: Active
 |  |  |  |  |  | 12 |  | Cc1cc(Nc2ncc(-c3nc4ccncc4s3)c(N[C@@H]3C[C@H](CO)[C@@H](O)[C@H]3O)n2)ccn1 |  | 
 |  |  |  |  |  | 12 |  | OC[C@H]1C[C@@H](Nc2nc(Nc3cncnc3)ncc2-c2nc3cnccc3s2)[C@H](O)[C@@H]1O |  | 
> 50000 | 94 | 10 | 19 (≈ 9.32 µg/mL) | > 50000 | > 50000 | 11 | > 15 | Cc1cc(Nc2ncc(-c3nc(-c4ccccc4)cs3)c(N[C@@H]3C[C@H](CO)[C@@H](O)[C@H]3O)n2)ccn1 | > 31000 | 
 |  |  |  |  |  | 11 |  | OC[C@H]1C[C@@H](Nc2nc(Nc3cccnc3)ncc2-c2nc3cnccc3s2)[C@H](O)[C@@H]1O |  | 
> 50000 | 87 | 10 | 17 (≈ 8.58 µg/mL) | > 50000 | > 50000 | 4 | > 15 | Cc1cc(Nc2ncc(-c3nc(-c4ccccc4)cs3)c(N[C@@H]3C[C@H](CO)[C@@H](O)[C@H]3O)n2)cc(C)n1 | > 31000 | inhibition [14]: Active; inhibition [15]: Active; inhibition [16]: Active; inhibition [8]: Active
> 50000 | 55 | 10 | 72 (≈ 34 µg/mL) | > 50000 | > 50000 | 0.74 | > 15 | Cc1cc(Nc2ncc(-c3ccc4ccccc4n3)c(N[C@@H]3C[C@H](CO)[C@@H](O)[C@H]3O)n2)cc(C)n1 | > 31000 | inhibition [4]: Active; inhibition [14]: Active; inhibition [15]: Active; inhibition [16]: Active; inhibition [8]: Active; inhibition [17]: Active

Source: ChEMBL document CHEMBL3600286, “Initial optimization and series evolution of diaminopyrimidine inhibitors of interleukin-1 receptor associated kinase 4” (Bioorg Med Chem Lett, 2015)
